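Where inhibition never reached the appropriate level, the endpoint shown equals the highest concentration tested. Otherwise, values were interpolated linearly from a five-concentration, 48-hour dose response in 96-well plates. GI50 = concentration required for 50% inhibition of growth.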 The source made the active and inactive calls. No stated cut-off is given here; in the data, active = GI50 up to about 1.1 µM and inactive = higher.
Key:
Test in all cases: NCI anticancer screen, dose series, 48 h
COLO 205 = test system: COLO 205
DMS-114 = test system: DMS-114
HCC 2998 = test system: HCC 2998
K562 = test system: K562
MOLT-4 = test system: MOLT-4
NCI-H522 = test system: NCI-H522
RPMI-8226 = test system: RPMI-8226
SK-MEL-28 = test system: SK-MEL-28
SK-MEL-2 = test system: SK-MEL-2
SK-MEL-5 = test system: SK-MEL-5
SK-OV-3 = test system: SK-OV-3
SNB-75 = test system: SNB-75
SW-620 = test system: SW-620
TK-10 = test system: TK-10
UACC-257 = test system: UACC-257
UACC-62 = test system: UACC-62
LOX IMVI = test system: LOX IMVI
NCI-H226 = test system: NCI-H226

Measured: GI50

COc1ccc(C=C2C(=O)OC(C)(C)OC2=O)cc1OC
inactive: COLO 205 > 100 µM | DMS-114 > 100 µM | HCC 2998 > 100 µM | K562 > 100 µM | MOLT-4 > 100 µM | NCI-H522 > 100 µM | RPMI-8226 > 100 µM | SK-MEL-28 > 100 µM | SK-MEL-2 > 100 µM | SK-MEL-5 > 100 µM | SK-OV-3 > 100 µM | SNB-75 80.7 µM | SW-620 > 100 µM | TK-10 > 100 µM | UACC-257 > 100 µM | UACC-62 > 100 µM

O=c1/c(=C/c2c(O)ccc3ccccc23)sc2nc3ccccc3n12
inactive: COLO 205 > 100 µM | DMS-114 > 100 µM | HCC 2998 > 100 µM | K562 > 100 µM | LOX IMVI > 100 µM | NCI-H226 > 100 µM | NCI-H522 > 100 µM | SK-MEL-28 > 100 µM | SK-MEL-2 > 100 µM | SK-MEL-5 > 100 µM | SK-OV-3 > 100 µM | SNB-75 > 100 µM | SW-620 > 100 µM | TK-10 > 100 µM | UACC-257 > 100 µM | UACC-62 > 100 µM

O=[PH](O)c1ccsc1
inactive: COLO 205 > 100 µM | DMS-114 > 100 µM | K562 > 100 µM | LOX IMVI > 100 µM | MOLT-4 > 100 µM | NCI-H522 > 100 µM | RPMI-8226 > 100 µM | SK-MEL-28 > 100 µM | SK-MEL-5 > 100 µM | SK-OV-3 > 100 µM | SW-620 > 100 µM | TK-10 > 100 µM | UACC-62 > 100 µM

O=C(CCc1n[nH]c(=S)o1)Nc1cc(Cl)c(Cl)cc1Cl
inactive: COLO 205 31.8 µM | DMS-114 41.3 µM | HCC 2998 > 100 µM | K562 18.9 µM | MOLT-4 45 µM | NCI-H226 66.4 µM | NCI-H522 71.9 µM | RPMI-8226 20.5 µM | SK-MEL-28 60.1 µM | SK-MEL-5 50.9 µM | SK-OV-3 > 100 µM | SNB-75 89.1 µM | SW-620 12.9 µM | TK-10 42.5 µM | UACC-257 > 100 µM | UACC-62 21.9 µM

C=C1C(C(=O)O)C1C(=O)O (configuration not stated)
inactive: DMS-114 > 100 µM | HCC 2998 > 100 µM | K562 > 100 µM | LOX IMVI > 100 µM | MOLT-4 > 100 µM | NCI-H226 21.1 µM | NCI-H522 > 100 µM | RPMI-8226 > 100 µM | SK-MEL-28 > 100 µM | SK-MEL-2 > 100 µM | SK-MEL-5 > 100 µM | SK-OV-3 > 100 µM | SNB-75 > 100 µM | SW-620 > 100 µM | TK-10 > 100 µM | UACC-257 > 100 µM | UACC-62 > 100 µM

Cc1ccc(S(=O)(=O)n2c(-c3ccccc3)c(-c3ccccc3)c3ccccc32)cc1
inactive: COLO 205 > 100 µM | DMS-114 20.5 µM | HCC 2998 > 100 µM | K562 64.9 µM | LOX IMVI > 100 µM | MOLT-4 > 100 µM | NCI-H226 > 100 µM | NCI-H522 > 100 µM | RPMI-8226 23.1 µM | SK-MEL-28 > 100 µM | SK-MEL-2 > 100 µM | SK-MEL-5 20.3 µM | SK-OV-3 5.32 µM | SNB-75 > 100 µM | SW-620 > 100 µM | TK-10 > 100 µM | UACC-257 > 100 µM | UACC-62 > 100 µM

CCOc1cc(/C=C/C=C/C=C/c2ccc(N(C)C)cc2)[s+]c2ccccc12
inactive: COLO 205 41.1 µM | DMS-114 5.61 µM | HCC 2998 48.2 µM | K562 20.9 µM | MOLT-4 5.5 µM | NCI-H226 11.1 µM | NCI-H522 4.56 µM | RPMI-8226 6.78 µM | SK-MEL-28 19.1 µM | SK-MEL-2 37.3 µM | SK-MEL-5 24 µM | SK-OV-3 > 100 µM | SNB-75 32 µM | SW-620 30.3 µM | TK-10 40.4 µM | UACC-257 30.7 µM | UACC-62 27.8 µM

COCCNC(=O)C1C(=O)C(=O)N(CCOC)C1=O (configuration not stated)
inactive: COLO 205 > 100 µM | DMS-114 > 100 µM | HCC 2998 > 100 µM | K562 > 100 µM | LOX IMVI > 100 µM | NCI-H226 > 100 µM | NCI-H522 > 100 µM | SK-MEL-28 > 100 µM | SK-MEL-2 > 100 µM | SK-MEL-5 > 100 µM | SK-OV-3 > 100 µM | SNB-75 > 100 µM | SW-620 > 100 µM | TK-10 > 100 µM | UACC-257 > 100 µM | UACC-62 > 100 µM

CC(C)CC(NC(=O)OC(C)(C)C)C(=O)Nc1ccc(Nc2nc(F)nc(-c3c4ccccc4c4n3CCS4)n2)cc1 (configuration not stated)
inactive: COLO 205 18.9 µM | DMS-114 20.1 µM | HCC 2998 18 µM | K562 26.8 µM | MOLT-4 16 µM | NCI-H522 15.3 µM | RPMI-8226 24.4 µM | SK-MEL-28 23.5 µM | SK-MEL-2 18.2 µM | SK-MEL-5 23.7 µM | SK-OV-3 18.8 µM | SNB-75 22.2 µM | SW-620 16.1 µM | TK-10 28.8 µM | UACC-257 23.6 µM | UACC-62 17.2 µM

CCOC(=O)C1Sc2ccccc2N=C1C (configuration not stated)
inactive: COLO 205 > 100 µM | DMS-114 > 100 µM | HCC 2998 > 100 µM | K562 > 100 µM | LOX IMVI > 100 µM | MOLT-4 > 100 µM | NCI-H226 > 100 µM | NCI-H522 > 100 µM | RPMI-8226 > 100 µM | SK-MEL-28 > 100 µM | SK-MEL-2 > 100 µM | SNB-75 > 100 µM | SW-620 > 100 µM | TK-10 > 100 µM | UACC-257 > 100 µM

COC(=O)C(=O)C(C(=O)OC)C(=O)C(=O)Nc1cc(Cl)c(C)cc1S(=O)(=O)O (configuration not stated)
inactive: COLO 205 > 100 µM | DMS-114 > 100 µM | HCC 2998 > 100 µM | K562 > 100 µM | LOX IMVI > 100 µM | MOLT-4 > 100 µM | NCI-H226 > 100 µM | NCI-H522 > 100 µM | SK-MEL-28 > 100 µM | SK-MEL-2 > 100 µM | SK-MEL-5 > 100 µM | SK-OV-3 > 100 µM | SNB-75 74.3 µM | SW-620 > 100 µM | TK-10 > 100 µM | UACC-257 > 100 µM | UACC-62 > 100 µM

O=C(Nc1ccc(Cl)cc1)c1cccc([N+](=O)[O-])c1O
inactive: COLO 205 2.91 µM | DMS-114 3.1 µM | HCC 2998 1.99 µM | K562 2.58 µM | LOX IMVI 3.74 µM | MOLT-4 2.5 µM | NCI-H226 2.33 µM | NCI-H522 1.98 µM | RPMI-8226 1.6 µM | SK-MEL-28 4.99 µM | SK-MEL-2 2.02 µM | SK-MEL-5 1.75 µM | SK-OV-3 2.96 µM | SNB-75 3.52 µM | SW-620 4.81 µM | TK-10 3.72 µM | UACC-257 2.24 µM | UACC-62 1.85 µM

COC(=O)C12C3C4C5(C(=O)OC)C(C1C35C(=O)N(C(C)C)C(C)C)C42C(=O)N(C(C)C)C(C)C (configuration not stated)
inactive: COLO 205 > 50 µM | DMS-114 > 29.9 µM | HCC 2998 > 50 µM | K562 > 47.4 µM | LOX IMVI > 27.1 µM | MOLT-4 > 50 µM | NCI-H226 > 50 µM | NCI-H522 > 47.2 µM | RPMI-8226 > 36.3 µM | SK-MEL-28 > 50 µM | SK-MEL-2 > 50 µM | SK-MEL-5 > 50 µM | SK-OV-3 > 50 µM | SNB-75 > 35.5 µM | SW-620 > 25.5 µM | TK-10 > 50 µM | UACC-257 > 50 µM | UACC-62 > 50 µM

COc1cc2c(cc1O)[C@H](C)C(c1ccccc1OC)O2 (some centres not stated)
inactive: COLO 205 6.97 µM | DMS-114 2.8 µM | HCC 2998 12.1 µM | K562 2.81 µM | LOX IMVI 4.67 µM | MOLT-4 4.65 µM | NCI-H226 22.4 µM | NCI-H522 3.01 µM | RPMI-8226 2.64 µM | SK-MEL-28 6.41 µM | SK-MEL-2 3.05 µM | SK-MEL-5 3.16 µM | SK-OV-3 3.01 µM | SNB-75 2.49 µM | SW-620 3.27 µM | TK-10 20.3 µM | UACC-257 18.2 µM | UACC-62 3.33 µM

CC(C)C1NC(=O)[C@H](C)OC(=O)[C@@H](C(C)C)NC(=O)[C@@H](C)OC(=O)C(C(C)C)NC(=O)[C@H](C)OC1=O (some centres not stated)
inactive: COLO 205 > 54.6 µM | DMS-114 > 63.8 µM | HCC 2998 > 100 µM | K562 > 41.7 µM | LOX IMVI > 49.3 µM | MOLT-4 > 100 µM | NCI-H226 > 100 µM | NCI-H522 > 100 µM | RPMI-8226 > 47.9 µM | SK-MEL-28 > 100 µM | SK-MEL-2 > 100 µM | SK-MEL-5 > 100 µM | SK-OV-3 > 100 µM | SNB-75 > 100 µM | SW-620 > 28.1 µM | TK-10 > 100 µM | UACC-257 > 100 µM | UACC-62 > 100 µM

CCCN(CCC)C(=O)Cc1c2n(c3ccccc13)CCCc1ccccc1-2
inactive: COLO 205 15.5 µM | DMS-114 11.7 µM | HCC 2998 13.2 µM | K562 12.5 µM | LOX IMVI 15.4 µM | MOLT-4 12.9 µM | NCI-H226 15.1 µM | NCI-H522 12.6 µM | RPMI-8226 14.4 µM | SK-MEL-28 16.3 µM | SK-MEL-2 13.1 µM | SK-MEL-5 14.3 µM | SK-OV-3 15.2 µM | SNB-75 11.9 µM | SW-620 16.6 µM | TK-10 15.7 µM | UACC-257 13.9 µM | UACC-62 11 µM

Source: ChEMBL document CHEMBL1201862, “PubChem BioAssay data set” (2004)
